Measured values as given in ChEMBL document CHEMBL1136029, “Inhibition of estrone sulfatase (ES) by derivatives of 4-[(aminosulfonyl)oxy] benzoic acid” (Bioorg Med Chem Lett, 2002).

Key:
[1] = target: T1, Steryl-sulfatase (Homo sapiens) (UniProt P08842); assay: Compound was tested for the Inhibitory activity against the Estrone Sulfatase at a concentration of 10 uM
T1 sequence (whole entry): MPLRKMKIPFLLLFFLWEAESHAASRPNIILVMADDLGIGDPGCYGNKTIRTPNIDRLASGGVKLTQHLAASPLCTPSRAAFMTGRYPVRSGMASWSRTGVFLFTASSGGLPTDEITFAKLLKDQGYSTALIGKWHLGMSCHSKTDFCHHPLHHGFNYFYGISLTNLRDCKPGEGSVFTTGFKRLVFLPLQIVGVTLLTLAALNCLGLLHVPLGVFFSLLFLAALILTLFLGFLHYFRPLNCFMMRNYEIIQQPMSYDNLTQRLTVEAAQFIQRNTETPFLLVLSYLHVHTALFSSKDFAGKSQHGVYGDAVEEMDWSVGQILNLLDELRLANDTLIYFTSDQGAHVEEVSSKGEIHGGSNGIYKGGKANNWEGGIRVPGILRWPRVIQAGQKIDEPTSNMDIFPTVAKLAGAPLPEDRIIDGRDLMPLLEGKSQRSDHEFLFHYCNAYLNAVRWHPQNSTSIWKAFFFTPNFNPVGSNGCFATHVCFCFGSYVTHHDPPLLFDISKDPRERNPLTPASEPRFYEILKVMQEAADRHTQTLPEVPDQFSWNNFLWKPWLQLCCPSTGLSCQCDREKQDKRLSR

Steryl-sulfatase [2] = target: T2, Steryl-sulfatase (Homo sapiens, UniProt P08842); assay: Inhibitory activity against Estrone Sulfatase
T2 sequence (P08842 whole entry): T1 sequence (whole entry)

[3] = Dissociation constant determined by calculating its overall stability; format: physicochemical
[4] = target: T1, Steryl-sulfatase (Homo sapiens); assay: Compound was tested for the Inhibitory activity against the Estrone Sulfatase at a concentration of 50 uM
[5] = target: T1, Steryl-sulfatase (Homo sapiens); assay: Compound was tested for the Inhibitory activity against the Estrone sulfatase at a concentration of 10 uM
[6] = target: T1, Steryl-sulfatase (Homo sapiens); assay: Compound was tested for the Inhibitory activity against the Estrone sulfatase at a concentration of 50 uM
Steryl-sulfatase [7] = target: T2, Steryl-sulfatase; assay: Inhibitory activity against Estrone sulfatase was determined

inhibition [1] [%]	IC50 (Steryl-sulfatase [2]) [µM]	pKa [3]	inhibition [4] [%]	inhibition [5] [%]	inhibition [6] [%]	IC50 (Steryl-sulfatase [7]) [µM]	Compound
72.6	3.8	8.52					CCCCCCOC(=O)c1ccc(OS(N)(=O)=O)cc1
64.4	5.9	8.47	86.2				CCCCCOC(=O)c1ccc(OS(N)(=O)=O)cc1
63	5		80.4				CCCCCCCCOC(=O)c1ccc(OS(N)(=O)=O)cc1
69.5	3.4	8.27	83.7				CCCCCCCOC(=O)c1ccc(OS(N)(=O)=O)cc1
25.6	31.6	8.22	63.4				CCOC(=O)c1ccc(OS(N)(=O)=O)cc1
36.5	22.4						CCCCCCCCCCOC(=O)c1ccc(OS(N)(=O)=O)cc1
48.3	10.5	8.07					CCCCOC(=O)c1ccc(OS(N)(=O)=O)cc1
42.6	13.2	8.03	76.9				CCCOC(=O)c1ccc(OS(N)(=O)=O)cc1
	4.8		76.2				CCCCCCCCCOC(=O)c1ccc(OS(N)(=O)=O)cc1
68.6							C[C@]12CC[C@@H]3c4ccc(OS(N)(=O)=O)cc4CCC3[C@@H]1CCC2=O (single isomer, unassigned)
		8.28		25.4	74.7	31.6	COC(=O)c1ccc(OS(N)(=O)=O)cc1
